From patent US6586425B2, “Cytoskeletal active agents for glaucoma therapy” (Wisconsin Alumni Research Foundation, priority 1996, dated 2003)
Like-named read-outs stand apart in the source and are kept apart here.

Experiments:
[1] = system: ciliary muscle-disinserted monkey eyes; experiment: Outflow facility in ciliary muscle-disinserted eyes; format: in vivo, cynomolgus and rhesus monkeys
[2] = system: bovine aortic endothelial cells; experiment: Actin filaments and C-C adhesions in cultured endothelial cells; format: cell-based
living monkey eyes [3] = experiment: Blood-aqueous barrier permeability to systemic fluorescein; format: in vivo, cynomolgus monkeys (Macaca fascicularis); conditions: 42 μg LAT-A topical
Procedure: Topical LAT-A (42 μg) was given to one eye and vehicle to the opposite eye as described above, 1 hr prior to intravenous injection of fluorescein Na in the saphenous vein (10 mg/kg in 500-600 μl) followed by a 4 ml saline flush. The concentration of fluorescein ([fluorescein]) in the cornea and AC was determined by fluorophotometry 15, 30, 45, 60, 90, 120, 180 and 240 min after fluorescein injection.

living monkey eyes [4] = experiment: Aqueous humor protein concentration (Lowry method); format: in vivo, cynomolgus monkeys (Macaca fascicularis); conditions: 42 μg LAT-A topical
Source text: Approximately 5.5 hr after LAT-A and vehicle (25% DMSO) administration, or approximately 6.5 hr after LAT-B and vehicle (25% DMSO) administration, when AHF measurements had been completed, a sample of AH was obtained under a Zeiss surgical microscope, using a 30-gauge needle connected via polyethylene tubing to a tuberculin syringe. The needle was threaded through the corneal stroma for 6 mm, then directed into the AC so that the wound was self-sealing. AH entered the tubing by very gentle suction with the tuberculin syringe; only occasionally was brief mild pressure on the cornea with a needle holder required to promote the initial flow of AH into the tubing via the very thin needle. Approximately 60-80 μl of AH was removed, leaving a shallow but not completely flattened AC. In separate protocols with different monkeys, AH was similarly obtained 2 hr after 42 μg LAT-A or 1 hr after 4 μg LAT-B to one eye and vehicle to the opposite eye. The AH samples were stored at −20° C. for up to 24 hr. The protein concentration in each sample was assayed by the Lowry method, as known in the art (See e.g., Lowry et al., J. Biol. Chem., 193:265-275[1951]; and Peterson et al., Anal. Biochem., 100:201-220[1979]), in duplicate, and the result averaged. Duplicate sets of protein standards containing 0, 1, 3, 5, 10, 20, 40, or 60 μg bovine serum albumin (BSA) were assayed by the same method and results averaged and graphed to give a linear equation that was used to estimate the protein content in the AH samples. The optical density of each sample was measured at 660 nm using a Spectronic 20 Spectrophotometer (Bausch and Lomb).

corneal endothelium = conditions: for Cell count Exp, drug eye / Cell count Exp, drug/Vehicle / Cell count Exp, drug−Vehicle / Cell count Exp/BL, drug eye / Cell count Exp/BL, drug/Vehicle / Cell count Exp/BL, drug−Vehicle: 21 μg LAT-A topical, n=4

C/C1=C/C(=O)O[C@@H]2C[C@@H](CC[C@H](C)/C=C\C=C\CC1)O[C@@](O)([C@@H]1CSC(=O)N1)C2 [LAT-A]
facility increase, control (non-disinserted) eyes ([1]; Lat-A 5.0 μM): 328±35% | Facility PRx, CM Dis eye ([1]; Lat-A 5.0 μM OU, n=9): 0.65 ± 0.23 μl/min/mmHg | Facility PRx, CM Dis/Cont ([1]; Lat-A 5.0 μM OU, n=9): 0.43 ± 0.15 | Facility PRx, Cont (non-disinserted, drug-treated) eye ([1]; Lat-A 5.0 μM OU, n=9): 1.51 ± 0.30 μl/min/mmHg | PRx/BL, CM Dis eye ([1]; Lat-A 5.0 μM OU, n=9): 4.53 ± 1.29 | PRx/BL, CM Dis/Cont ([1]; Lat-A 5.0 μM OU, n=9): 1.06 ± 0.27 | PRx/BL, Cont (non-disinserted, drug-treated) eye ([1]; Lat-A 5.0 μM OU, n=9): 4.28 ± 0.35 | facility increase, ciliary muscle-disinserted eyes ([1]; Lat-A 5.0 μM, n=9): 353±129% | effects on actin filaments and C-C adhesions ([2]; concentrations greater than 0.5 μM, 1 hour of exposure): unequivocal effects | effects on actin filaments and C-C adhesions ([2]; lower concentrations): more subtle slower onset effects | [fluorescein]cornea, LAT-A-treated vs vehicle-treated eyes (living monkey eyes [3]; 15 min after i.v. fluorescein (1.25 hr after LAT-A)): ~10 times | [fluorescein]cornea, LAT-A-treated vs vehicle-treated eyes (living monkey eyes [3]; 240 min after i.v. fluorescein): ~1.5 times | [Fluorescein]AC higher in LAT-A eyes than in vehicle-treated eyes (living monkey eyes [3]; 240 min after i.v. fluorescein, n=4): 24±3% | [Protein]AC vs vehicle-treated eyes (living monkey eyes [4]; 5.5 hr): no difference in protein concentration | [Protein]AC higher than in vehicle-treated eyes (living monkey eyes [4]; two hr, n=7): 25±9% | Cell count Exp, drug eye (corneal endothelium; 3 days): 2488 ± 63 cell per square millimeter | Cell count Exp, drug/Vehicle (corneal endothelium; 3 days): 1.02 ± 0.03 | Cell count Exp, drug−Vehicle (corneal endothelium; 3 days): 44 ± 62 cell per square millimeter | Cell count Exp/BL, drug eye (corneal endothelium; 3 days): 0.98 ± 0.01 | Cell count Exp/BL, drug/Vehicle (corneal endothelium; 3 days): 1.06 ± 0.02 | Cell count Exp/BL, drug−Vehicle (corneal endothelium; 3 days): 0.05 ± 0.10 | Cell count Exp, drug eye (corneal endothelium; 7 days): 2488 ± 97 cell per square millimeter | Cell count Exp, drug/Vehicle (corneal endothelium; 7 days): 0.98 ± 0.06 | Cell count Exp, drug−Vehicle (corneal endothelium; 7 days): −69 ± 140 cell per square millimeter | Cell count Exp/BL, drug eye (corneal endothelium; 7 days): 0.98 ± 0.03 | Cell count Exp/BL, drug/Vehicle (corneal endothelium; 7 days): 1.02 ± 0.08 | Cell count Exp/BL, drug−Vehicle (corneal endothelium; 7 days): 0.01 ± 0.07 | Cell count Exp, drug eye (corneal endothelium; 14 days): 2694 ± 28 cell per square millimeter | Cell count Exp, drug/Vehicle (corneal endothelium; 14 days): 1.01 ± 0.06 | Cell count Exp, drug−Vehicle (corneal endothelium; 14 days): 0 ± 147 cell per square millimeter | Cell count Exp/BL, drug eye (corneal endothelium; 14 days): 1.06 ± 0.03 | Cell count Exp/BL, drug/Vehicle (corneal endothelium; 14 days): 1.04 ± 0.03 | Cell count Exp/BL, drug−Vehicle (corneal endothelium; 14 days): 0.04 ± 0.03 | cell densities vs baseline (corneal endothelium; 21 μg LAT-A, day 3): essentially the same as at baseline | cell densities vs baseline or contralateral eyes (corneal endothelium; 42 μg LAT-A, day 3): slightly (but not significantly) lower cell densities than baseline or contralateral eyes | cell density and morphology (corneal endothelium; LAT-A either dose, day 7): cell density and morphology had returned to baseline | countability of corneal endothelial cells (corneal endothelium; either dose of LAT-A (21 or 42 μg), 1 or 3 hr): could not be counted
